According to US20090233966A1, “Analogues of the Azinomycins as Anti-Tumour Agents and as Prodrugs” (School of Pharmacy, University of London, priority 2005, published 2009):
Like-named read-outs stand apart in the source and are kept apart here.

Key:
NCl 60 cell panel = test: NCI 60 cell line panel antitumour activity (whole panel); type: cell-based, human; conditions: wide range of human tumour cell lines
Description: Examples 6 and 7 make use of the NCl 60 cell panel. This is an in vitro cell line screening project providing direct support to the National Cancer Institute's USA Developmental Therapeutic Programme for anti cancer discovery. The methodolgy for the cell line's operation is described by Boyd et al in Drug Development Research 1995, 34, 91-109.

[1] = system: HoeR (Hoechst415 resistant version of U2-OS); test: Cytotoxicity in HoeR cell line; type: cell-based, human; conditions: for IC50: read-out: IC50 (nM) of compound; for cytotoxicity (in words): initial cytotoxicity studies
Description: (§1) Initial cytotoxicity studies were in the performed U2-OS and HoeR cell lines. The U2-OS is a human osteosarcoma cell line and HoeR is a DNA minor groove binder-resistant variant of this. Both are available from the American Type Culture Collection (ATCC), Dr. Raymon H. 10801 University Boulevard, Manassas, Va., 20110-2209, USA.

[2] = system: U2-OS human osteosarcoma cell line; test: Cytotoxicity in U2-OS cell line; type: cell-based; conditions: for IC50: read-out: IC50 (nM) of compound; for cytotoxicity (in words): initial cytotoxicity studies
Description: as §1

[3] = system: wild type CHO cells (absent in CYP3A4); test: Cytotoxicity on wild type CHO cells; type: cell-based; conditions: FIG. 2(b)
CYP3A4 CHO cells = test: Cytotoxicity on CHO cells transfected with CYP3A4; type: cell-based; conditions: FIG. 2(b)

Compound | antitumour activity in the NCl 60 cell line panel (in words) (NCl 60 cell panel) | IC50 ([1]; Homo sapiens, U2OS) [nM] | cytotoxicity (in words) [1] | IC50 ([2]; Homo sapiens, U2OS) [nM] | cytotoxicity (in words) [2] | IC50 [1] [nM] | IC50 [2] [nM] | cytotoxicity (in words) [3] | cytotoxicity (in words) (CYP3A4 CHO cells)
COc1cc(C(=O)O[C@H](C(=O)NCCN2CCCC(Cl)C2)C2(C)CO2)c2cccc(C)c2c1 (some centres unmarked) | excellent anti-tumour activity |  |  |  |  |  |  |  | 
C=C(C)[C@@H](OC(=O)c1cc(OC)cc2c(C)cccc12)C(N)=O [(2R)-2] |  | > 10000 | not cytotoxic | > 10000 | not cytotoxic |  |  |  | 
COc1cc(C(=O)OC(C(N)=O)[C@]2(C)CO2)c2ccccc2c1 (stereo partly drawn) [(2R, 3R)-1] |  |  | good activity |  | good activity | 40 | 40 |  | 
COc1cc(C(=O)OC(C(N)=O)[C@]2(C)CO2)c2ccccc2c1 (stereo partly drawn) [(2R, 3S)-1] |  |  | good activity |  | good activity | 45 | 40 |  | 
COc1cc(C(=O)OC(C(N)=O)[C@]2(C)CO2)c2ccccc2c1 (stereo partly drawn) [(2S, 3R)-1] |  |  | good activity |  | good activity | 121 | 120 |  | 
COc1cc(C(=O)OC(C(N)=O)[C@]2(C)CO2)c2ccccc2c1 (stereo partly drawn) [(2S, 3S)-1] |  |  | good activity |  | good activity | 14 | 15 | high cytotoxicity | high cytotoxicity
